# Patent publication US10159668B2, “Pharmaceutical composition for inhibiting alpha-glucosidase” (Tamkang University, priority 2017, dated 2018)
# Legend:
# [1] = biological target: yeast α-glucosidase (Yeast aG); type: biochemical; conditions: Embodiment 2, Table 2, single components
# Description: (§1) Testing and comparing the inhibitive activity Max % and IC50 of the composition and a known diabetes drug A (α-glucosidase inhibitor) to rat α-glucosidase (abbreviated as Rat aG) and yeast α-glucosidase (abbreviated as Yeast aG), individually. IC50 means the concentration of the inhibitor to achieve 50% inhibition rate.
# (§2) The present embodiment tests IC50 of adenine, 3-hydroxy-dl-proline, nicotinic acid, (3,6-dioxo-piperazin-2-yl)-acetic acid amide, 2-ethylhexyl heptanoate, and the diabetes drug A to Rat aG and Yeast aG, individually.
# [2] = biological target: rat α-glucosidase (Rat aG); test: Test of IC50: inhibitive activity on rat α-glucosidase; type: biochemical; conditions: Embodiment 2, Table 2, single components
# Description: as §1, §2
Yeast aGI (IC50 to Yeast aG) [1],Rat aGI (IC50 to Rat aG) [2],SMILES
517 µg/mL,67 µg/mL,O=C(O)c1cccnc1 [Nicotinic acid]
4.0 µg/mL,105 µg/mL,CCCCCCC(=O)OCC(CC)CCCC (stereo not shown) [2-ethylhexyl heptanoate]
4.0 µg/mL,105 µg/mL,"NC(=O)CC1NC(=O)CNC1=O (stereo not shown) [(3,6-dioxo-piperazin-2-yl)-acetic acid amide]"
21.5 µg/mL,,Nc1ncnc2nc[nH]c12 [Adenine]
